Data as given in paper PMC7782162, “Inhibition of the β-carbonic anhydrase from the protozoan pathogen Trichomonas vaginalis with sulphonamides” (Journal of Enzyme Inhibition and Medicinal Chemistry, 2020).

Biological target: T1, TvaCA1 (Trichomonas vaginalis, UniProt A2ENQ8)
T1 construct: gene TVAG_005270; recombinant from E. coli BL21 Star (DE3), Ni2+-NTA purified; beta-CA homodimer with two active sites
T1 sequence (A2ENQ8 1-182): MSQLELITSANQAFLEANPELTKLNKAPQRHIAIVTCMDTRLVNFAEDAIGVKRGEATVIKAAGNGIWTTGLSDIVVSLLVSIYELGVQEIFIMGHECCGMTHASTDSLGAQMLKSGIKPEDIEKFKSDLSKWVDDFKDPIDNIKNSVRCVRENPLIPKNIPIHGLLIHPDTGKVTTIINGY
Experiment: stopped-flow CO2 hydrase assay
Type: biochemical
Conditions: read-out: KI^a (nM) / TvaCA1^c

| Compound | Ki [nM] |
| --- | --- |
| CC(=O)N=c1sc(S(N)(=O)=O)nn1C [MZA, methazolamide] | 3830 |
| Nc1nnc(S(N)(=O)=O)s1 [compound 13, 13] | 1890 |
| NS(=O)(=O)c1cc(Cl)cc(Cl)c1O [compound 10, 10] | 4540 |
| NS(=O)(=O)c1nnc(NS(=O)(=O)c2ccccc2)s1 [BZA, benzolamide] | > 50000 |
| NS(=O)(=O)c1ccc(O)cc1 [compound 15, 15] | 2030 |
| Cc1ccc(S(N)(=O)=O)cc1 [compound 4, 4] | 3600 |
| CCN[C@H]1CN(CCCOC)S(=O)(=O)c2sc(S(N)(=O)=O)cc21 [BRZ, brinzolamide] | > 50000 |
| Nc1nccc(Nc2ccc(S(N)(=O)=O)cc2)n1 [compound 19, 19] | 4530 |
| NS(=O)(=O)Cc1noc2ccccc12 [ZNS, zonisamide] | > 50000 |
| Nc1cccc(S(N)(=O)=O)c1 [compound 1, 1] | 3250 |
| Nc1ccc(S(N)(=O)=O)cc1F [compound 7, 7] | 4280 |
| NS(=O)(=O)c1cccc(S(N)(=O)=O)c1 [compound 3, 3] | 3560 |
| Cn1nc(S(N)(=O)=O)sc1=N [compound 14, 14] | 3990 |
| CC1(C)O[C@@H]2[C@@H](CO[C@@]3(COS(N)(=O)=O)OC(C)(C)O[C@@H]23)O1 [TPM, topiramate] | > 50000 |
| NS(=O)(=O)c1cc(Cl)c(Cl)c(S(N)(=O)=O)c1 [DCP, dichlorophenamide] | > 50000 |
| NS(=O)(=O)c1ccc(CCNS(=O)(=O)c2ccc([N+](=O)[O-])cc2CO)cc1 [compound 21, 21] | 3450 |
| Nc1ccc(S(N)(=O)=O)cc1 [compound 2, 2] | 4740 |

Biological target: T1, TvaCA1
Experiment: biochemical
Parameters: stopped-flow CO2 hydration assay, phenol red at 557 nm, TRIS pH 8.3, 15 min preincubation, KI
Conditions: inhibitor; read-out: KI^a (nM) / TvaCA1^c / β
Procedure: An Applied Photophysics stopped-flow instrument was used for assaying the CA catalysed CO2 hydration activity. Phenol red (at a concentration of 0.2 mM) was used as an indicator, working at the absorbance maximum of 557 nm, with 10 − 20 mM HEPES (pH 7.5, for α-CAs) or TRIS (pH 8.3 for β-CAs) as buffers, and 20 mM NaClO4 (for maintaining constant the ionic strength), following the initial rates of the CA-catalysed CO2 hydration reaction for a period of 10–100 s. The CO2 concentrations ranged from 1.7 to 17 mM for the determination of the kinetic parameters and inhibition constants. For each inhibitor, at least six traces of the initial 5–10% of the reaction were used for determining the initial velocity. The uncatalyzed rates were determined in the same manner and subtracted from the total observed rates. Stock solutions of inhibitors (10 mM) and dilutions up to 0.01 nM were prepared in distilled-deionised water. Inhibitor and enzyme solutions of concentrations ranging between 5 and 12 nM were preincubated together for 15 min at room temperature prior to assay, in order to allow for the formation of the enzyme–inhibitor complex. The inhibition constants were obtained by non-linear least-squares methods using PRISM 3 as reported earlier, and represent the mean from at least three different determinations. TvaCA1 was a recombinant enzyme obtained in-house as described earlier. The enzyme was recombinantly produced in E. coli (OneShot® BL21 Star™ (DE3) Chemically Competent Cells, #C601003, Thermo Fisher Scientific, Finland). The enzyme was purified using Ni^2+-NTA agarose affinity chromatography resin (Macherey-Nagel GmbH Co., Germany). More detailed information concerning the recombinant protein production and its kinetic and structural characterisation can be found in our previous article. The presence of the correct protein in the isolated protein fraction was confirmed by tandem mass spectrometry (MS/MS).

| Compound | Ki [nM] |
| --- | --- |
| Nc1ccc(S(=O)(=O)NCc2ccc(S(N)(=O)=O)cc2)cc1 [compound 23] | > 50000 |

Same assay, conditions: read-out: KI^a (nM) / TvaCA1^c / β

| Compound | Ki [nM] |
| --- | --- |
| NCCc1ccc(S(N)(=O)=O)cc1 [compound 6] | > 50000 |
| Nc1ccc(S(N)(=O)=O)cc1Br [compound 9] | > 50000 |
| Cc1ccc(-c2cc(C(F)(F)F)nn2-c2ccc(S(N)(=O)=O)cc2)cc1 [CLX] | > 50000 |
| Nc1cc(C(F)(F)F)c(S(N)(=O)=O)cc1S(N)(=O)=O [compound 11] | > 50000 |
| NS(=O)(=O)c1ccc(CO)cc1 [compound 16] | > 50000 |
| NS(=O)(=O)c1cc2c(cc1Cl)NCNS2(=O)=O [HCT] | > 50000 |
| NS(=O)(=O)c1ccc(C(=O)O)cc1 [compound 18] | > 50000 |
| Nc1cc(Cl)c(S(N)(=O)=O)cc1S(N)(=O)=O [compound 12] | > 50000 |
| NS(=O)(=O)c1ccc(N2CCCCS2(=O)=O)cc1 [SLT] | > 50000 |
| Nc1ccc(S(=O)(=O)Nc2nnc(S(N)(=O)=O)s2)cc1 [compound 20] | > 50000 |
| Nc1ccc(S(N)(=O)=O)cc1Cl [compound 8] | > 50000 |
| NS(=O)(=O)c1ccc(CCO)cc1 [compound 17] | > 50000 |
| Cc1onc(-c2ccccc2)c1-c1ccc(S(N)(=O)=O)cc1 [VLX] | > 50000 |
| Nc1ccc(S(=O)(=O)Nc2ccc(S(N)(=O)=O)cc2)cc1 [compound 22] | > 50000 |
| O=C1NS(=O)(=O)c2ccccc21 [SAC] | > 50000 |
| NS(=O)(=O)c1ccc(S(=O)(=O)Nc2cccc3c(Cl)c[nH]c23)cc1 [IND] | > 50000 |
| NCc1ccc(S(N)(=O)=O)cc1 [compound 5] | > 50000 |
